Test system: MDA-MB-468 spheroids with HUVEC/MSC, viability
Test: Anticancer human tumor MDA-MB-468 cell line growth inhibition [PI3K];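 further: spheroids exposed to agents for seven days before readout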;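 on viability, T/C: 100% = DMSO vehicle control viability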
Details: for IC50: curve of first compound; for viability, T/C: stronger effect = lower value
Summary of the method: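 Agents were dosed from a top concentration near clinical Cmax (otherwise 10 microM) in half-log decrements, alone or combined with PI3K inhibitors. The spheroids contain tumor cells plus endothelial (HUVEC) and MSC stroma; viability is measured.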

**Q.** Which results are given for `CCN1CCN(Cc2ccc(Nc3ncc(F)c(-c4cc(F)c5nc(C)n(C(C)C)c5c4)n3)nc2)CC1` + COc1c(OCCCN2CCOCC2)ccc2c3n(c(=NC(=O)c4cnc(N)nc4)nc12)CCN3?
**A.** IC50 (second compound 0.00316 µM): > 1000 nM; IC50 (second compound 0.01 µM): > 1000 nM; IC50 (second compound 0.0316 µM): > 1000 nM; IC50 (second compound 0.1 µM): > 1000 nM; IC50 (second compound 0.316 µM): < 3.16 nM; IC50 (second compound 1 µM): < 3.16 nM; viability, T/C (second compound 0.00316 µM, first compound 0.00316 µM): 96.9%; viability, T/C (second compound 0.00316 µM, first compound 0.01 µM): 90.8%; viability, T/C (second compound 0.00316 µM, first compound 0.0316 µM): 88.2%; viability, T/C (second compound 0.00316 µM, first compound 0.1 µM): 96.8%; viability, T/C (second compound 0.00316 µM, first compound 0.316 µM): 99.5%; viability, T/C (second compound 0.00316 µM, first compound 1 µM): 69.9%; viability, T/C (second compound 0.01 µM, first compound 0.00316 µM): 85.3%; viability, T/C (second compound 0.01 µM, first compound 0.01 µM): 88.8%; viability, T/C (second compound 0.01 µM, first compound 0.0316 µM): 82%; viability, T/C (second compound 0.01 µM, first compound 0.1 µM): 88.8%; viability, T/C (second compound 0.01 µM, first compound 0.316 µM): 84.2%; viability, T/C (second compound 0.01 µM, first compound 1 µM): 54.4%; viability, T/C (second compound 0.0316 µM, first compound 0.00316 µM): 77%; viability, T/C (second compound 0.0316 µM, first compound 0.01 µM): 72.2%; viability, T/C (second compound 0.0316 µM, first compound 0.0316 µM): 77.5%; viability, T/C (second compound 0.0316 µM, first compound 0.1 µM): 73.6%; viability, T/C (second compound 0.0316 µM, first compound 0.316 µM): 81.4%; viability, T/C (second compound 0.0316 µM, first compound 1 µM): 66.1%; viability, T/C (second compound 0.1 µM, first compound 0.00316 µM): 56.6%; viability, T/C (second compound 0.1 µM, first compound 0.01 µM): 72.4%; viability, T/C (second compound 0.1 µM, first compound 0.0316 µM): 61.9%; viability, T/C (second compound 0.1 µM, first compound 0.1 µM): 59%; viability, T/C (second compound 0.1 µM, first compound 0.316 µM): 64%; viability, T/C (second compound 0.1 µM, first compound 1 µM): 40.3%; viability, T/C (second compound 0.316 µM, first compound 0.00316 µM): 26.9%; viability, T/C (second compound 0.316 µM, first compound 0.01 µM): 25.1%; viability, T/C (second compound 0.316 µM, first compound 0.0316 µM): 28.1%; viability, T/C (second compound 0.316 µM, first compound 0.1 µM): 29.9%; viability, T/C (second compound 0.316 µM, first compound 0.316 µM): 31.7%; viability, T/C (second compound 0.316 µM, first compound 1 µM): 24.4%; viability, T/C (second compound 1 µM, first compound 0.00316 µM): 4.09%; viability, T/C (second compound 1 µM, first compound 0.01 µM): 4.14%; viability, T/C (second compound 1 µM, first compound 0.0316 µM): 2.96%; viability, T/C (second compound 1 µM, first compound 0.1 µM): 4.33%; viability, T/C (second compound 1 µM, first compound 0.316 µM): 6.64%; viability, T/C (second compound 1 µM, first compound 1 µM): 9.9%
